From patent publication US7482379B2, “Propenoyl hydrazides” (priority 2004, dated 2009)

Experiments:
Caspase-3 = molecular target: T1, Caspase-3 (Homo sapiens, UniProt P42574); assay: Caspase-3 progress curve inhibition assay; details: second-order rate constant; Ac-DEVD-AMC substrate; Pipes buffer pH 7.2
T1 sequence (P42574 29-175 limits assumed): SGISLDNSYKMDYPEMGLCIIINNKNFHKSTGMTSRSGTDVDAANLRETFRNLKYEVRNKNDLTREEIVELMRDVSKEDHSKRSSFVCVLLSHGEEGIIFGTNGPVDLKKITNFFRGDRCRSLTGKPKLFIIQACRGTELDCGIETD
T1 sequence (P42574 176-277 limits assumed): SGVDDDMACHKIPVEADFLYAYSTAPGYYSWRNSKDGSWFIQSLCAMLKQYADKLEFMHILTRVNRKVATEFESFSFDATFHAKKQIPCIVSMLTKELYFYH

Caspase-10 = molecular target: T2, Caspase-10 (Homo sapiens, UniProt Q92851); assay: Caspase-10 progress curve inhibition assay; details: second-order rate constant; Ac-DEVD-AMC substrate; Hepes/PEG buffer pH 7.0
T2 sequence (Q92851 220-415 limits assumed): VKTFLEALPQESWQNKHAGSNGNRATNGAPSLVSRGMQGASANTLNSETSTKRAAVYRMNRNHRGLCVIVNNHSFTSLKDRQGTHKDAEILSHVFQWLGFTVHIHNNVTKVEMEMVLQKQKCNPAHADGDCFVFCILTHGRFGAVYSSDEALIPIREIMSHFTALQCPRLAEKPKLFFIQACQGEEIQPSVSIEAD
T2 sequence (Q92851 416-521 limits assumed): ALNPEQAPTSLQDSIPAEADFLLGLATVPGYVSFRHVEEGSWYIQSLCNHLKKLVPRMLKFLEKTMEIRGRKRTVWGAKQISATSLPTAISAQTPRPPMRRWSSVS

Caspase-8 = Caspase-8 (Homo sapiens, UniProt Q14790); assay: Caspase-8 progress curve inhibition assay; details: second-order rate constant; Ac-DEVD-AMC substrate; Pipes buffer pH 7.2
Sequence of Caspase-8 (Q14790 217-374 limits assumed): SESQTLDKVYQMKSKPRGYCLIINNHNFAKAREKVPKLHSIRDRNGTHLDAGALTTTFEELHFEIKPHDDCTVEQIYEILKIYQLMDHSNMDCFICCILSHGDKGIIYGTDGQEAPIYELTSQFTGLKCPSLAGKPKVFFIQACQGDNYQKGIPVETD
Sequence of Caspase-8 (Q14790 385-479 limits assumed): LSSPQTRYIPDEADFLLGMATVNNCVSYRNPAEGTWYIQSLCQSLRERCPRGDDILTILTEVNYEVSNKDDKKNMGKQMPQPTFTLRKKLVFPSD

Caspase-2 = molecular target: T3, Caspase-2 (Homo sapiens, UniProt P42575); assay: Caspase-2 progress curve inhibition assay; details: second-order rate constant; Cbz-VDVAD-AFC substrate; Pipes buffer pH 7.2
T3 sequence (P42575 170-333 limits assumed): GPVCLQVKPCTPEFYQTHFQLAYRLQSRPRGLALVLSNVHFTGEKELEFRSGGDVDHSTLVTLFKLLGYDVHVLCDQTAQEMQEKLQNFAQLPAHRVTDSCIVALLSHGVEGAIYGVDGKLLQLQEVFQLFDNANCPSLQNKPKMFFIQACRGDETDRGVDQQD
T3 sequence (P42575 348-452 limits assumed): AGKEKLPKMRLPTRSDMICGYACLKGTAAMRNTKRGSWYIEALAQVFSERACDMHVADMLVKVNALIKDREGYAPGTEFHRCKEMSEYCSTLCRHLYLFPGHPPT

Caspase-6 = molecular target: T4, Caspase-6 (Homo sapiens, UniProt P55212); assay: Caspase-6 progress curve inhibition assay; details: second-order rate constant; Ac-DEVD-AMC substrate; Pipes buffer pH 7.2
T4 sequence (P55212 24-179 limits assumed): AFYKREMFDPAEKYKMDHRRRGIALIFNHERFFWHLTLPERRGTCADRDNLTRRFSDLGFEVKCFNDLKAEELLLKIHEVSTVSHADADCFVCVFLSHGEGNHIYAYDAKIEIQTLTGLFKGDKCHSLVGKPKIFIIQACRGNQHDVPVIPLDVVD
T4 sequence (P55212 194-293 limits assumed): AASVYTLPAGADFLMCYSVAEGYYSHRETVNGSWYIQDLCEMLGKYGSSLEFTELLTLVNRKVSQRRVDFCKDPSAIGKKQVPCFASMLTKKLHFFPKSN

Caspase-9 = molecular target: T5, Caspase-9 (Homo sapiens, UniProt P55211); assay: Caspase-9 progress curve inhibition assay; details: second-order rate constant; Ac-LEHD-AFC substrate; Hepes buffer pH 7.0 with 0.7 M sodium citrate
T5 sequence (P55211 1-315 limits assumed): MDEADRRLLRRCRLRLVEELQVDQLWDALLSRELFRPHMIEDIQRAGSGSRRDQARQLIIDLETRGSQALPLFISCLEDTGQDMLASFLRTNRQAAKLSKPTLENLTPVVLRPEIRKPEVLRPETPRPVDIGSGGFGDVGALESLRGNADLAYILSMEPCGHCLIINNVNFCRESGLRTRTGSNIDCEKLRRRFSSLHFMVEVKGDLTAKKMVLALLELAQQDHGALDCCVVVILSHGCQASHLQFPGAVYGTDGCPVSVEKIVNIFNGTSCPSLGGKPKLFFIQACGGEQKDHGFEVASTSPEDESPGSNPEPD
T5 sequence (P55211 331-416 limits assumed): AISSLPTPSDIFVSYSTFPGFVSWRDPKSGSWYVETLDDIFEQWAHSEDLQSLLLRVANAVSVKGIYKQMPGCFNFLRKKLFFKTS

Caspase-7 = molecular target: T6, Caspase-7 (Homo sapiens, UniProt P55210); assay: Caspase-7 progress curve inhibition assay; details: second-order rate constant; Ac-DEVD-AMC substrate; Pipes buffer pH 7.2
T6 sequence (P55210 24-198 limits assumed): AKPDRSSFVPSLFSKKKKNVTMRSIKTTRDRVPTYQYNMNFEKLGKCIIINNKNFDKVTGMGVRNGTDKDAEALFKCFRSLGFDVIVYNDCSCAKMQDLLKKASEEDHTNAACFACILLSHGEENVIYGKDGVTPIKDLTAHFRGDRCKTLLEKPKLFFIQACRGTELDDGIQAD
T6 sequence (P55210 207-303 limits assumed): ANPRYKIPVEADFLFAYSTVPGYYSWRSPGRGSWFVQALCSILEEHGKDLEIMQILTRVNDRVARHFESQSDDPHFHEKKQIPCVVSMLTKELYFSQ

| Structure (SMILES) | k2 Caspase-3 (Caspase-3) | k2 Caspase-10 (Caspase-10) | k2 Caspase-8 (Caspase-8) | k2 Caspase-2 (Caspase-2) | k2 Caspase-6 (Caspase-6) | k2 Caspase-9 (Caspase-9) | k2 Caspase-7 (Caspase-7) |
| --- | --- | --- | --- | --- | --- | --- | --- |
| CC[C@H](C)[C@H](NC(=O)OCc1ccccc1)C(=O)N[C@@H](CCC(=O)O)C(=O)N[C@H](C(=O)NN(CC(=O)O)C(=O)/C=C/C(=O)NCCc1ccccc1)[C@@H](C)O (relative stereo) [Cbz-Ile-Glu-Thr-AAsp-CH═CH—CONHCH2CH2Ph, N^2—(N-BenzyloxycarbonylisoleucylglutamyIthreonyl)-N^1-carboxylmethyl-N^1-trans-(3-phenyethylcarbamoylpropenoyl)hydrazine] | 4,750 M^−1s^−1 | 8,290 M^−1s^−1 | 71,000 M^−1s^−1 | 30 M⁻¹ s⁻¹ | 18,700 M^−1s^−1 | 615 M⁻¹ s⁻¹ | 440 M⁻¹ s⁻¹ |
| CC(C)[C@H](NC(=O)[C@H](CCC(=O)O)NC(=O)[C@H](CC(=O)O)NC(=O)OCc1ccccc1)C(=O)NN(CC(=O)O)C(=O)/C=C/C(=O)N(C)Cc1ccccc1 (relative stereo) [Cbz-Asp-Glu-Val-AAsp-CH═CH—CON(CH3)CH2Ph, N^1-trans-(3-Benzylmethylcarbamoylpropenoyl)-N^2—(N-benzyloxycarbonylaspartylglutamylvalyl)-N^1-carboxymethylhydrazine] | 2,640,000 M^−1s^−1 | 29,400 M^−1s^−1 | 90,300 M^−1s^−1 | 660 M⁻¹ s⁻¹ | 9,500 M^−1s^−1 | 820 M⁻¹ s⁻¹ | 275,000 M^−1s^−1 |
| CC(C)C[C@H](NC(=O)OCc1ccccc1)C(=O)N[C@@H](CCC(=O)O)C(=O)N[C@H](C(=O)NN(CC(=O)O)C(=O)/C=C/C(=O)N(C)Cc1ccccc1)[C@@H](C)O (relative stereo) [Cbz-Leu-Glu-Thr-AAsp-CH═CH—CON(CH3)CH2Ph, N^1-trans-(3-Benzylmethylcarbamoylpropenoyl)-N^2—(N-benzyloxycarbonylleucylglutamylthreonyl)-N^1-carboxylmethylhydrazine] | 6,000 M^−1s^−1 | 8,430 M^−1s^−1 | 169,000 M^−1s^−1 | 140 M⁻¹ s⁻¹ | 10,800 M^−1s^−1 | 4,320 M^−1s^−1 | 520 M⁻¹ s⁻¹ |
| CC(C)C[C@H](NC(=O)OCc1ccccc1)C(=O)N[C@@H](CCC(=O)O)C(=O)N[C@H](C(=O)NN(CC(=O)O)C(=O)/C=C/C(=O)Nc1ccccc1)[C@@H](C)O (relative stereo) [Cbz-Leu-Glu-Thr-AAsp-CH═CH—CONHPh, N^2—(N-Benzyloxycarbonylleucylglutamylthreonyl)-N^1-carboxylmethyl-N^1-trans-(3-phenylcarbamoylpropenoyl)hydrazine] | 4,700 M^−1s^−1 | 6,050 M^−1s^−1 | 176,000 M^−1s^−1 | 290 M⁻¹ s⁻¹ | 11,400 M^−1s^−1 | 1,190 M^−1s^−1 | 730 M⁻¹ s⁻¹ |
| CC(C)C[C@H](NC(=O)OCc1ccccc1)C(=O)N[C@@H](CCC(=O)O)C(=O)N[C@H](C(=O)NN(CC(=O)O)C(=O)/C=C/C(=O)N(C)CCc1ccccc1)[C@@H](C)O (relative stereo) [N^2—(N-Benzyloxycarbonylleucylglutamylthreonyl)-N^1-carboxylmethyl-N^1-trans-(3-methylphenylethylcarbamoylpropenoyl)hydrazine] | 2,620 M^−1s^−1 | 6,190 M^−1s^−1 | 65,300 M^−1s^−1 | 50 M⁻¹ s⁻¹ | 2,550 M^−1s^−1 | 960 M⁻¹ s⁻¹ | 290 M⁻¹ s⁻¹ |
| CC(C)[C@H](NC(=O)[C@H](CCC(=O)O)NC(=O)[C@H](CC(=O)O)NC(=O)OCc1ccccc1)C(=O)NN(CC(=O)O)C(=O)C=CC(=O)N(Cc1cccc2ccccc12)Cc1cccc2ccccc12 | 5,620,000 M^−1s^−1 | 32,500 M^−1s^−1 | 9,460 M^−1s^−1 | 410 M⁻¹ s⁻¹ | 29,700 M^−1s^−1 | 150 M⁻¹ s⁻¹ | 875,000 M^−1s^−1 |
| CC[C@H](C)[C@H](NC(=O)OCc1ccccc1)C(=O)N[C@@H](CCC(=O)O)C(=O)N[C@H](C(=O)NN(CC(=O)O)C(=O)/C=C/C(=O)N(C)Cc1ccccc1)[C@@H](C)O (relative stereo) [Cbz-Ile-Glu-Thr-AAsp-CH═CH—CON(CH3)CH2Ph, N^1-trans-(3-Benzylmethylcarbamoylpropenoyl)-N^2—(N-benzyloxycarbonylisoleucylglutamylthreonyl)-N^1-carboxylmethylhydrazine] | 6,000 M^−1s^−1 | 8,500 M^−1s^−1 | 59,700 M^−1s^−1 | 95 M⁻¹ s⁻¹ | 45,900 M^−1s^−1 | 845 M⁻¹ s⁻¹ | 390 M⁻¹ s⁻¹ |
| CC(C)C[C@H](NC(=O)OCc1ccccc1)C(=O)N[C@@H](CCC(=O)O)C(=O)N[C@H](C(=O)NN(CC(=O)O)C(=O)/C=C/C(=O)NCc1ccccc1)[C@@H](C)O (relative stereo) [Cbz-Leu-Glu-Thr-AAsp-CH═CH—CONHCH2Ph, N^1-trans-(3-Benzylcarbamoylpropenoyl)-N^2—(N-benzyloxycarbonylleucylglutamylthreonyl)-N^1-carboxylmethylhydrazine] | 1,120 M^−1s^−1 | 14,400 M^−1s^−1 | 70,170 M^−1s^−1 | 66 M⁻¹ s⁻¹ | 1,550 M^−1s^−1 | 1,400 M^−1s^−1 | 340 M⁻¹ s⁻¹ |
| CCOC(=O)/C=C/C(=O)N(CC(=O)O)NC(=O)[C@@H](NC(=O)[C@H](CCC(=O)O)NC(=O)[C@@H](NC(=O)OCc1ccccc1)C(C)C)C(C)C (relative stereo) [Cbz-Val-Glu-Val-AAsp-CH═CH—COOEt, N^2—(N-Benzyloxycarbonylvalylglutamylvalyl)-N^1-carboxymethyl-N^1-trans-(3-ethoxycarbonylpropenoyl)hydrazine] | 41,200 M^−1s^−1 | 6,600 M^−1s^−1 | 175,800 M^−1s^−1 | 115 M⁻¹ s⁻¹ | 83,600 M^−1s^−1 | 340 M⁻¹ s⁻¹ | 3,650 M^−1s^−1 |
